According to patent US20150275169A1, “PROCESS FOR THE LARGE SCALE PRODUCTION OF FRUIT CELLS” (BIO HARVEST LTD., priority 2012, published 2015):
“Also recorded” adds a separate entry of the source.

Legend:
[1] = Solubility assay of RES sources in water vs 80% methanol; format: physicochemical
Description: RGC, synthetic resveratrol (S-RES; Sigma-Aldrich) and resveratrol extract from the plant Polygonum Capsidatum (plant-RES) were dissolved in 80% methanol to achieve 100% dissolution. Then, all RES sources were dissolved in water at pH 2 and pH 7 and the percentage of dissolution in water was compared to the dissolution in methanol. The RES in all samples was monitored at 306 nm, based on its characteristic absorption profile, and its concentration was determined by a calibration curve of resveratrol analytical standard.

[2] = in vivo; cited from earlier work
[3] = system: carrageenan-induced hind paw inflammation in rats; assay: Carrageenan-induced paw oedema rat model, paw volume measurements; format: in vivo; conditions: RGC 400 mg/kg oral or indomethacin 2 mg/kg 2 h before carrageenan, two-way ANOVA, Bonferroni, p<0.001
From the text: The aim of the present study was to evaluate in vivo anti-inflammatory activity of RGC (Red Grape Cells) made according to the large scale process of the invention in an acute inflammation model in rats so as to verify the efficiency of the cells produced according to the invention. One of the experimental models most widely used to study acute inflammation in rodents is that based on the intraplantar administration of carrageenan. The study assessed the efficacy of the RGC by two methods: • 1. Paw volume measurements • 2. Inflammatory nociception in freely moving rats • Red Grape Cells (RGC) prepared according to example 1. • RGC was administered orally at dose of 400 mg/kg body weight as a suspension in sterile drinking water, 2 h before carrageenan injection. The dose level was 40 mg/ml. Each rat was dosed with 1 ml of suspension per 100 g body weight. • RGC Composition: […] Rats were divided into three groups of eight rats in each group. The rats in all groups were injected with 1% Carrageenan ([…]) or sterile saline (0.9% NaCl) into the sub plantar tissue of left hind paw of each rat. The Following Tests were Performed: • paw volumes were measured hourly just before carrageenan injection at time point 0 and 1, 2, 4 hours after injection using caliper. • The paw dimensions were measured in two axes and paw volume was calculated. […]

[4] = system: carrageenan-induced behavioral hyperalgesia in rats; assay: Hot plate method for measuring inflammatory nociception in freely moving rats; format: in vivo, rat; conditions: RGC 400 mg/kg oral (p<0.01) or indomethacin 2 mg/kg (p<0.05-0.01)
Description: The study assessed the efficacy of the RGC by two methods: • 1. Paw volume measurements • 2. Inflammatory nociception in freely moving rats • Red Grape Cells (RGC) prepared according to example 1. • RGC was administered orally at dose of 400 mg/kg body weight as a suspension in sterile drinking water, 2 h before carrageenan injection. The dose level was 40 mg/ml. Each rat was dosed with 1 ml of suspension per 100 g body weight. • RGC Composition: […] Rats were divided into three groups of eight rats in each group. The rats in all groups were injected with 1% Carrageenan ([…]) or sterile saline (0.9% NaCl) into the sub plantar tissue of left hind paw of each rat. The Following Tests were Performed: The hot plate method was used to determine inflammatory nociception in freely moving rates. After inducing edema and treatment with vehicle, indomethacin or RGC preparation, the rats were placed on a hot plate maintained at a temperature of 55±0.5° C. The latency to flick or lick the hind paw or jump from the hot plate in comparison to its baseline was considered as the reaction time. […]

In the case of “resveratrol (trans-3,5,4′-trihydroxystilbene) [Synthetic-RES]”, the “dissolution in 80% methanol solution” value ([1]; 80% methanol) is reported as “completely dissolved” and the “dissolution of RES in water, percentage compared to dissolution in methanol” value ([1]; acidified water pH=2 as well as pH 7.0, RES monitored at 306 nm, FIG. 5) is reported as 7%.

In the case of `Oc1ccc(/C=C/c2cc(O)cc(O)c2)cc1`, the “shape of concentration time curve” value [2] is listed as “distinct single concentration peak”.

With `COc1ccc2c(c1)c(CC(=O)O)c(C)n2C(=O)c1ccc(Cl)cc1` [indomethacin] the “paw edema (volume %), comparison to control group (1M)” value [3] was “statistically significant difference at 2 and 4 h”, the “Hot plate latency delta, baseline-actual time, comparison to vehicle control (1M)” value ([4]; FIG. 3) was “significant decrease in the latency delta of response to the thermal stimulus, 2 and 4 hours after carrageenan injection; also recorded: statistically significant difference at 2 and 4 h” and the “Hot plate latency, % from baseline, comparison to control group (1M)” value ([4]; hot plate 55°C, FIG. 2) was “statistically significant difference at 2 and 4 h”.
